{
  "source": "patent US9588106B2",
  "about": "“Methods and compositions for measuring cell permeability” (The University of Chicago, priority 2012, dated 2017)",
  "tested_on": "HPAEC monolayer",
  "experiment": "XPerT permeability visualization on biotinylated gelatin coated coverslips (FITC-avidin, VE-cadherin staining)",
  "format": "cell-based, human",
  "conditions": "thrombin 0.2 or 0.3 U/ml 15 min; forskolin 2 μM 30 min; 10× objective; FIG. 4A",
  "experimental": "Human pulmonary artery endothelial cells (HPAEC) were obtained from Lonza (Allendale, N.J.) and cultured in cell growth medium (EGM-2, Lonza) containing 10% fetal bovine serum (FBS). Cell cultures were maintained at 37° C. in a humidified 5% CO2 incubator and used for experiments at passages 5-8. In experiments with agonist stimulation, 10% FBS growth medium was replaced with 2% FBS growth medium for 2 hours prior to experiment. Measurements of transendothelial electrical resistance across a confluent endothelial cell monolayer were performed using the electrical cell-substrate impedance sensing system ECIS-1600 (Applied Biophysics, Troy, N.Y.). Transient transfections with cMyc-tagged RhoA-V14 or Rho kinase-CAT (6-553) were performed using PolyJet transfection reagent (SignaGen, Rockville, Md.) according to the manufacturer's protocol. In brief, HPAEC were seeded on 35 mm diameter cell culture dishes with biotinylated gelatin-treated coverslips at a density of 5×10^5 cells per dish. After 24 hours cells were transfected with 1 μg of plasmid DNA per dish (ratio: 1 μg of DNA per 3 μl of PolyJet). Permeability visualization experiments were performed 24 hours after transfection.\nPermeability visualization experiments were performed on 18×18 mm square Rinzle plastic coverslips. The coverslips, placed in 35 mm culture dishes, were coated with biotinylated gelatin as described above. […]",
  "data": [
    {"substance": "thrombin", "values": [
      {"measurement": "FITC fluorescence at cell-cell junction areas, low magnification images", "result": "dramatic increase in FITC fluorescence in the intercellular gaps"}
    ]}
  ]
}
